Data as given in US9999616B2 (ZENITH EPIGENETICS LTD., priority 2013, dated 2018).

Experiments:
[1] = system: Human AML MV-4-11 cells; assay: Inhibition of cell proliferation in MV4-11 cells (CellTiter Aqueous One); type: cell-based; conditions: MV4-11, 72 h
Method in brief: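 MV4-11 cells, 5×10^4 per well in IMDM with 10% FBS, were exposed to increasing compound concentrations or 0.1% DMSO for 72 h at 37 °C in triplicate. Viability was read by MTS (CellTiter Aqueous One) absorbance at 490 nm after 3-4 h. IC50 was derived from background-corrected signal relative to DMSO.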

[2] = system: hIL-17 mRNA; assay: Inhibition of hIL-17 mRNA transcription in OKT3-stimulated peripheral blood mononuclear cells; type: cell-based; conditions: human PBMC, OKT3 stimulation 6 h, read-out: IL-17 Activity
Method in brief: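 Human PBMCs in IL-2 (20 ng/ml) medium preincubated 1 h with compound or 0.1% DMSO, then OKT3-stimulated for 6 h at 37 °C. hIL-17 mRNA quantified by one-step TaqMan qRT-PCR, normalized to an internal control, as fold induction relative to control.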

[3] = system: hApoA-1 mRNA; assay: Up-regulation of hApoA-1 mRNA transcription in Huh7 cells; type: cell-based; conditions: Homo sapiens, Huh-7, EC170 of hApoA-1 mRNA up-regulation, 48 h, read-out: ApoA-1 activity
Procedure: Huh7 cells (2.5×10^5 per well) were plated in a 96-well plate using 100 μL DMEM per well, (Gibco DMEM supplemented with penicillin/streptomycin and 10% FBS), 72 h before the addition of the compound. The cells are treated with increasing concentrations of the compound or DMSO (0.1%), and incubated at 37° C., 5% CO2 for 48 h. Spent media was removed from the Huh-7 cells and placed on ice for immediate use with the “LDH cytotoxicity assay Kit II” from Abcam. The cells remaining in the plate were rinsed with 100 μL PBS. Cells were harvested using the mRNA Catcher PLUS kit according to manufacturer's instructions. The eluted mRNA was then used in a one-step quantitative real-time PCR reaction, using components of the RNA UltraSense™ One-Step Kit (Life Technologies) together with Applied Biosystems TaqMan® primer-probes for hApoA-1 and Cyclophilin. Real-time PCR plates were run on a ViiA™7 real time PCR machine (Applied Biosystems), data was analyzed, normalizing the Ct values for hApoA-1 to an internal control, prior to determining the fold induction of each unknown sample, relative to the control.

[4] = system: MM1.s cells; assay: In vivo efficacy in multiple myeloma xenograft model using MM1.s cells; design: species or system mouse; conditions: mice, oral 25 to 90 mg/kg
Procedure: MM1.s cells (ATCC) were grown under standard cell culture conditions and SCID-Beige strain of female mice age 6-7 weeks were injected with 10×10^6 cells/animal in 100 μL PBS+100 μL Matrigel in the lower left abdominal flank. By approximately day 21 after MM1.s cells injection, mice were randomized based on tumor volume (L×W×H)/2) of average 120 mm^3. Mice were dosed orally with compound at 25 to 90 mg/kg b.i.d and or q.d in EA006 formulation at 10 mL/kg body weight dose volume. Tumor measurements were taken with electronic micro calipers and body weights measured on alternate days beginning from dosing period. The average tumor volumes, percent Tumor Growth Inhibition (TGI) and % change in body weights were compared relative to Vehicle control animals. The means, statistical analysis and the comparison between groups were calculated using Student's t-test in Excel.

[5] = target: Brd4 bromodomain 1 (BRD4(1)) (Homo sapiens, UniProt O60885); assay: Inhibition of tetra-acetylated histone H4 binding to Brd4 bromodomain 1, measured by FRET (HTRF); design: made in house; host or cells: E. coli BL21(DE3); conditions: 2 h at room temperature
Method in brief: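 N-terminally His-tagged bromodomain (200 nM), expressed in E. coli and purified by Ni affinity and size exclusion, was incubated with biotinylated tetra-acetylated H4 peptide (25-50 nM), Eu-cryptate streptavidin and XL665 anti-His in HEPES pH 7.4 buffer with 0.2% DMSO. Reactions ran 2 h at room temperature. IC50 came from the 665/620 nm fluorescence decrease.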

IC50 [1] [µM] | IC50 [2] [µM] | IC50 [5] [µM] | SMILES | EC170 [3] [µM] | In vivo activity [4]
0.3 to 3 | 0.3 to 3 | ≤ 0.3 | Cc1noc(C)c1-c1cc(-c2c(C)noc2C)c2nc[nH]c2c1 [Example Compound 1, 4,4′-(1H-benzo[d]imidazole-4,6-diyl)bis(3,5-dimethylisoxazole)] | 0.3 to 3 | Active
0.3 to 3 | ≤ 0.3 | ≤ 0.3 | Cc1nc2c(-c3c(C)noc3C)cc(-c3c(C)noc3C)cc2[nH]1 [Example Compound 6, 4,4′-(2-methyl-1H-benzo[d]imidazole-4,6-diyl)bis(3,5-dimethylisoxazole)] | – | Active
0.3 to 3 | 0.3 to 3 | ≤ 0.3 | Cc1nc2c(-c3cccnc3C)cc(-c3c(C)noc3C)cc2[nH]1 [Example Compound 41, 3,5-dimethyl-4-(2-methyl-4-(2-methylpyridin-3-yl)-1H-benzo[d]imidazol-6-yl)isoxazole] | ≤ 0.3 | Active
0.3 to 3 | ≤ 0.3 | ≤ 0.3 | Cc1nc2c(-c3c(C)nn(C)c3C)cc(-c3c(C)noc3C)cc2[nH]1 [Example Compound 49, 3,5-dimethyl-4-(2-methyl-4-(1,3,5-trimethyl-1H-pyrazol-4-yl)-1H-benzo[d]imidazol-6-yl)isoxazole] | ≤ 0.3 | –
